Source: ChEMBL document CHEMBL2021857, “Synthesis, biological activity and docking study of imidazol-5-one as novel non-nucleoside HIV-1 reverse transcriptase inhibitors” (Bioorg Med Chem, 2012)

Key:
[1] = target: Human immunodeficiency virus type 1 reverse transcriptase (Human immunodeficiency virus 1, UniProt Q72547); assay: Inhibition of HIV-1 reverse transcriptase after 1 hr by colorimetry
[2] = target: Human immunodeficiency virus type 1 reverse transcriptase (Human immunodeficiency virus 1) (UniProt Q72547); assay: Inhibition of HIV-1 reverse transcriptase at 20 ug after 1 hr by colorimetry

| Structure (SMILES) | IC50 [1] | inhibition [2] |
| --- | --- | --- |
| CC1=N/C(=C/c2ccco2)C(=O)N1Cc1ccncc1 | 2.5 µM | 92.7% |
| CC1=N/C(=C/c2c[nH]c3ccccc23)C(=O)N1Cc1ccncc1 |  | 58.7% |
| O=C1/C(=C\c2ccccc2O)N=C(c2ccccc2)N1Cc1ccncc1 |  | 43.2% |
| COc1cc(/C=C2/N=C(c3ccccc3)N(Cc3ccncc3)C2=O)cc(OC)c1OC |  | 57.8% |
| C/C=C1/N=C(C)N(Cc2ccncc2)C1=O |  | 64.3% |
| COc1cc(/C=C2/N=C(C)N(Cc3ccncc3)C2=O)cc(OC)c1OC |  | 67% |
| CC1=N/C(=C/c2ccccc2O)C(=O)N1Cc1ccncc1 | 3.5 µM | 74.2% |
| COc1cc(/C=C2/N=C(c3ccccc3)N(Cc3ccncc3)C2=O)ccc1O |  | 50.2% |
| CC1=N/C(=C/c2ccc(Cl)cc2Cl)C(=O)N1Cc1ccncc1 |  | 62.8% |
| COc1ccc(/C=C2/N=C(c3ccccc3)N(Cc3ccncc3)C2=O)cc1 |  | 50% |
| COc1ccc(/C=C2/N=C(C)N(Cc3ccncc3)C2=O)cc1 |  | 59.2% |
| CN(C)c1ccc(/C=C2/N=C(c3ccccc3)N(Cc3ccncc3)C2=O)cc1 |  | 36.8% |
| O=C1/C(=C\c2ccco2)N=C(c2ccccc2)N1Cc1ccncc1 |  | 62.5% |
| C/C=C1/N=C(c2ccccc2)N(Cc2ccncc2)C1=O |  | 61.5% |
| CC1=N/C(=C/c2ccccc2)C(=O)N1Cc1ccncc1 |  | 60.7% |
| O=C1/C(=C\c2ccccc2)N=C(c2ccccc2)N1Cc1ccncc1 |  | 54.4% |
| CC1=N/C(=C/c2ccc(Cl)cc2)C(=O)N1Cc1ccncc1 | 3.9 µM | 69.8% |
| O=C1/C(=C\c2ccc(Cl)cc2)N=C(c2ccccc2)N1Cc1ccncc1 |  | 47% |
| CC1=N/C(=C/c2ccc(N(C)C)cc2)C(=O)N1Cc1ccncc1 |  | 58.1% |
| O=C1/C(=C\c2ccc(Cl)cc2Cl)N=C(c2ccccc2)N1Cc1ccncc1 | 3.8 µM | 70% |
